Experimental findings from US9782516B2, “Tissue adhesive coatings for drug coated balloon” (ABBOTT CARDIOVASCULAR SYSTEMS INC., priority 2013, dated 2017) are described below.

The conditions of series [1]: in vivo.
Series [2] in a line: Drug transfer efficiency of drug coated balloons (Table 1). In kind it is in vivo. As to conditions: balloon 3 × 12 mm, coronary, 20% overstretch, stent present, inflation 30 s, time point 30 minutes. The procedure:
For purpose of explanation, and not limitation, of the disclosed subject matter, reference is now made to a comparative study between paclitaxel and zotarolimus.
(§1) With a stent on a coronary balloon, the percent of dose in the vessel from a pure zotarolimus coated balloon was measured at about 30 minutes, 1 day, and 7 days.

Series [3] can be described thus: Percent of dose in the vessel from pure zotarolimus coated coronary balloon with stent (FIG. 2). The series is classed as in vivo. Here is the method: FIG. 2 is a graph illustrating percent transfer efficiency as a function of time for pure zotarolimus coatings on a zotarolimus coated balloon.
as §1

Series [4] has as its system whole blood. The series can be described thus: Acute thrombogenicity of stents in whole blood via the Chandler Loop (FIG. 5). The conditions noted are these: drug coated stents in whole blood; compared to zotarolimus.
Series [5] is described as follows: Percent tissue uptake from paclitaxel coated balloon (FIG. 3). The series is classed as in vivo. The conditions noted are these: porcine coronary arteries, day 1 (24 hours).

With `CO[C@H]1C[C@@H]2CC[C@@H](C)[C@@](O)(O2)C(=O)C(=O)N2CCCC[C@H]2C(=O)O[C@H]([C@H](C)C[C@@H]2CC[C@H](n3cnnn3)[C@H](OC)C2)CC(=O)[C@H](C)/C=C(\C)[C@@H](O)[C@@H](OC)C(=O)[C@H](C)C[C@H](C)/C=C/C=C/C=C/1C` [Pure Zotarolimus, zotarolimus], the “histology evidence of coating fragments adhering to a vessel wall” value in series [1] was “no apparent histology evidence”. Also, the Percent transfer efficiency came to 4.7 in series [2] (dose 104 μg/cm^2) and 5.2 in series [2] (dose 576 μg/cm^2). The “percent drug in tissue over time” value in series [3] (coronary balloon with stent, measured at about 30 minutes, 1 day and 7 days) was “rapid decrease in the percent drug in tissue”. Also, the tissue uptake result in series [3] (pure zotarolimus coated coronary balloon with stent, 652 μg dose, day 1 (24 hours)) was “about 0.56%”.

As for `CC(=O)O[C@H]1C(=O)[C@@]2(C)[C@H]([C@H](OC(=O)c3ccccc3)[C@]3(O)C[C@H](OC(=O)[C@H](O)[C@@H](NC(=O)c4ccccc4)c4ccccc4)C(C)=C1C3(C)C)[C@]1(OC(C)=O)CO[C@@H]1C[C@@H]2O` [paclitaxel], the “acute thrombogenicity as measured by lactate dehydrogenase (LDH)” value in series [4] was “more thrombogenic”. For the same compound, the tissue uptake entry in series [5] was “about 2%”.
